Experimental findings from US20070128136A1, “Terrein compound having melanin biosynthesis inhibitors and its preparation” (priority 2003, published 2007) are described below.

Holding throughout (type): cell-based
In data set [1] the test system is Mel-Ab melanin cells. As to the kind of experiment: Melanin biosynthesis inhibiting effect in Mel-Ab melanin cells. Particulars: for melanin biosynthesis inhibition: terrein 0-100 uM, kojic acid 0-100 uM, FIG. 5 and FIG. 6. As for the experimental part:
Particularly, Mel-Ab melanin cells were cultured in DMEM medium supplemented with 10% fetal bovine serum (FBS), 100 nM phobol 12-myristate 13-acetate, 1 nM cholera toxin, 50 ug/ml of streptomycin and 50 U/ml of penicillin under the condition of 5% CO2, 37° C. Mel-Ab melanin cells cultured in the above experimental example 1 were treated respectively with terrein compound and kojic acid, a conventional whitening agent, at different concentrations (0, 10, 25, 50, 75 and 100 uM of terrein compound and 0, 1, 10 and 100 uM of kojic acid). Both Mel-Ab melanin cells cultured under general culture conditions and Mel-Ab melanin cells treated with terrein compound of the present invention were observed under a microscope for comparison, and the result was shown in FIG. 7.

Data set [2] relates to ERK (extracellular signal-regulated kinase). As to the kind of experiment: ERK activation in Mel-Ab melanin cells by Western blot. As to conditions: 100 uM. As to the method: (§1) In order to investigate melanin biosynthesis inhibiting mechanism of terrein compound of the present invention, Mel-Ab melanin cells cultured above were treated with 100 uM of terrein compound. And at each time point of 0, 2, 10, 30, 60, 180, and 360 minute, ERK (extracellular signal-regulated kinase) activation and MITF (microphthalmia-associated transcription factor) decomposition were investigated by Western blot.
(In western blotting, separated proteins are transferred to a membrane and probed.)

For data set [3], the system named is Mel-Ab melanin cells. As to the kind of experiment: Cytotoxicity test, crystal violet staining of Mel-Ab cells. As to conditions: 24 hours, under the concentration of 100 uM, FIG. 4. As for the experimental part: In order to investigate cytotoxicity of terrein compound of the present invention, Mel-Ab cells were treated with the terrein compound.
Particularly, Mel-Ab melanin cells were cultured in DMEM medium supplemented with 10% fetal bovine serum (FBS), 100 nM phobol 12-myristate 13-acetate, 1 nM cholera toxin, 50 ug/ml of streptomycin and 50 U/ml of penicillin under the condition of 5% CO2, 37° C.
Mel-Ab melanin cells cultured above were treated with terrein compound at different concentrations (0, 10, 25, 50, 75, 100 uM) for 24 hours, followed by further culture. Then, medium was removed. Cells were stained with 0.5 ml of 0.1% crystal violet and Mel-Ab melanin cells were checked. Crystal violet was removed by washing several times. Crystal violet remaining in cells was extracted by using 1.0 ml of 95% ethanol. OD590 of the extracted crystal violet was measured by ELISA reader in order to investigate vitality of cells.

For data set [4], the system named is MITF (microphthalmia-associated transcription factor). Put plainly: MITF decomposition in Mel-Ab melanin cells by Western blot. As to conditions: 100 uM, with ERK activation. As to the method: as §1

Bounds are passed on as bounds.

In the case of `O=c1cc(CO)occ1O` [kojic acid, reference compound], the melanin biosynthesis inhibition entry in the data set with Mel-Ab melanin cells [1] is listed as “inhibited melanin biosynthesis dose-dependently”.
In the case of `C/C=C/C1=CC(=O)C(O)C1O` (stereo not drawn) [terrein compound, 4,5-dihydroxy-3-propenyl-2-cyclopenten-1-one], in the data set with Mel-Ab melanin cells [1] (both at 10 uM), the “melanin biosynthesis inhibiting effect relative to kojic acid” value came to 10 times. For the same molecule, in the data set with Mel-Ab melanin cells [1] (dose-dependently, FIG. 7), the “dark melanin of cells observed under a microscope” value is reported as “clearly decreased”. The melanin biosynthesis inhibition result in the data set on Mel-Ab melanin cells [1] is “inhibited melanin biosynthesis dose-dependently”. Also, in data set [2], the “duration of ERK activation” value is no less than 6 h; the “time from treatment to ERK1 and ERK2 activation” value lay within 2 to 10 min. Moreover, the “ERK1 and ERK2 activation” value in data set [2] (FIG. 8) is listed as “activated fast”. Also, the “cytotoxicity (vitality of cells, OD590 of crystal violet)” value in the data set on Mel-Ab melanin cells [3] is given as “no cytotoxicity”. In addition, the “expression of MITF” value in data set [4] is listed as “decreased”.
